Measurements reported in PubChem BioAssay AID1963451 (Molecular Pharmacology Branch, DTP, NCI, 2024).
One block for each compound: values may come before it.

Tested on: 521955-158-R6-J3-PDC complex spheroid growth, % test/control
Assay: Anticancer human tumor 521955-158-R6-J3-PDC patient-derived pancreatic carcinoma cell line growth inhibition [Asc]
Settings: for IC50: curve of first compound; for viability, T/C: stronger effect = lower value
Method in brief: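 Tumor cells were grown as multicellular spheroids with stromal HUVEC and mesenchymal stem cells and treated singly or in combination. Concentrations fell in half-log steps from the clinical Cmax, or from 10 microM where none was known.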

[1] = second compound 0.0316 µM, first compound 0.00316 µM
[2] = second compound 0.0316 µM, first compound 0.01 µM
[3] = second compound 0.0316 µM, first compound 0.0316 µM
[4] = second compound 0.0316 µM, first compound 0.1 µM
[5] = second compound 0.0316 µM, first compound 0.316 µM
[6] = second compound 0.0316 µM, first compound 1 µM
[7] = second compound 0.1 µM, first compound 0.00316 µM
[8] = second compound 0.1 µM, first compound 0.01 µM
[9] = second compound 0.1 µM, first compound 0.0316 µM
[10] = second compound 0.1 µM, first compound 0.1 µM
[11] = second compound 0.1 µM, first compound 0.316 µM
[12] = second compound 0.1 µM, first compound 1 µM
[13] = second compound 0.316 µM, first compound 0.00316 µM
[14] = second compound 0.316 µM, first compound 0.01 µM
[15] = second compound 0.316 µM, first compound 0.0316 µM
[16] = second compound 0.316 µM, first compound 0.1 µM
[17] = second compound 0.316 µM, first compound 0.316 µM
[18] = second compound 0.316 µM, first compound 1 µM
[19] = second compound 1 µM, first compound 0.00316 µM
[20] = second compound 1 µM, first compound 0.01 µM
[21] = second compound 1 µM, first compound 0.0316 µM
[22] = second compound 1 µM, first compound 0.1 µM
[23] = second compound 1 µM, first compound 0.316 µM
[24] = second compound 1 µM, first compound 1 µM
[25] = second compound 3.16 µM, first compound 0.00316 µM
[26] = second compound 3.16 µM, first compound 0.01 µM
[27] = second compound 3.16 µM, first compound 0.0316 µM
[28] = second compound 3.16 µM, first compound 0.1 µM
[29] = second compound 3.16 µM, first compound 0.316 µM
[30] = second compound 3.16 µM, first compound 1 µM
[31] = second compound 10 µM, first compound 0.00316 µM
[32] = second compound 10 µM, first compound 0.01 µM
[33] = second compound 10 µM, first compound 0.0316 µM
[34] = second compound 10 µM, first compound 0.1 µM
[35] = second compound 10 µM, first compound 0.316 µM
[36] = second compound 10 µM, first compound 1 µM
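Further: spheroids exposed to compounds for 7 days.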
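Wherever viability, T/C is given: 100% = DMSO vehicle control wells.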

IC50 (second compound 0.0316 µM): > 1 µM
IC50 (second compound 0.1 µM): > 1 µM
IC50 (second compound 0.316 µM): < 0.00316 µM
IC50 (second compound 1 µM): < 0.00316 µM
IC50 (second compound 3.16 µM): < 0.00316 µM
IC50 (second compound 10 µM): < 0.00316 µM
Structure (SMILES): CCN1CCN(Cc2ccc(Nc3ncc(F)c(-c4cc(F)c5nc(C)n(C(C)C)c5c4)n3)nc2)CC1 + Cc1c(S(C)(=O)=O)c(-c2cc(F)cc(N3CCN(c4ccc(NS(=O)(=O)c5ccc(NC(CCN6CCC(C(=O)OCCCP(=O)(O)O)CC6)CSc6ccccc6)c(S(=O)(=O)C(F)(F)F)c5)cc4)CC3)c2)c(-c2ccc(Cl)cc2)n1C(C)C
viability, T/C [1]: 96.2%
viability, T/C [2]: 81%
viability, T/C [3]: 73.6%
viability, T/C [4]: 71.9%
viability, T/C [5]: 67.6%
viability, T/C [6]: 84.4%
viability, T/C [7]: 72.3%
viability, T/C [8]: 57.5%
viability, T/C [9]: 62%
viability, T/C [10]: 63.1%
viability, T/C [11]: 82.1%
viability, T/C [12]: 73.5%
viability, T/C [13]: 53%
viability, T/C [14]: 49%
viability, T/C [15]: 43.9%
viability, T/C [16]: 53.6%
viability, T/C [17]: 49.4%
viability, T/C [18]: 53.9%
viability, T/C [19]: 35.6%
viability, T/C [20]: 39.1%
viability, T/C [21]: 29.4%
viability, T/C [22]: 37.3%
viability, T/C [23]: 34.2%
viability, T/C [24]: 41.1%
viability, T/C [25]: 21.4%
viability, T/C [26]: 18.7%
viability, T/C [27]: 18.4%
viability, T/C [28]: 19.4%
viability, T/C [29]: 24.2%
viability, T/C [30]: 26.1%
viability, T/C [31]: 30.4%
viability, T/C [32]: 16.3%
viability, T/C [33]: 15%
viability, T/C [34]: 15.2%
viability, T/C [35]: 26.6%
viability, T/C [36]: 28.9%

IC50 (second compound 0.0316 µM): > 0.1 µM
IC50 (second compound 0.1 µM): > 0.1 µM
IC50 (second compound 0.316 µM): 0.00481 µM
IC50 (second compound 1 µM): < 0.000316 µM
IC50 (second compound 3.16 µM): < 0.000316 µM
IC50 (second compound 10 µM): < 0.000316 µM
Structure (SMILES): Cn1ncnc1[C@H]1c2n[nH]c(=O)c3cc(F)cc(c23)N[C@@H]1c1ccc(F)cc1 + Cc1c(S(C)(=O)=O)c(-c2cc(F)cc(N3CCN(c4ccc(NS(=O)(=O)c5ccc(NC(CCN6CCC(C(=O)OCCCP(=O)(O)O)CC6)CSc6ccccc6)c(S(=O)(=O)C(F)(F)F)c5)cc4)CC3)c2)c(-c2ccc(Cl)cc2)n1C(C)C
viability, T/C (second compound 0.0316 µM, first compound 0.000316 µM): 84.8%
viability, T/C (second compound 0.0316 µM, first compound 0.001 µM): 92.7%
viability, T/C [1]: 70.5%
viability, T/C [2]: 82%
viability, T/C [3]: 77%
viability, T/C [4]: 68.9%
viability, T/C (second compound 0.1 µM, first compound 0.000316 µM): 86.3%
viability, T/C (second compound 0.1 µM, first compound 0.001 µM): 75.1%
viability, T/C [7]: 75.3%
viability, T/C [8]: 82.3%
viability, T/C [9]: 61%
viability, T/C [10]: 67.6%
viability, T/C (second compound 0.316 µM, first compound 0.000316 µM): 53.4%
viability, T/C (second compound 0.316 µM, first compound 0.001 µM): 54.2%
viability, T/C [13]: 52.5%
viability, T/C [14]: 44.4%
viability, T/C [15]: 40.8%
viability, T/C [16]: 51.5%
viability, T/C (second compound 1 µM, first compound 0.000316 µM): 35.1%
viability, T/C (second compound 1 µM, first compound 0.001 µM): 32.7%
viability, T/C [19]: 41.4%
viability, T/C [20]: 29.8%
viability, T/C [21]: 35%
viability, T/C [22]: 40.9%
viability, T/C (second compound 3.16 µM, first compound 0.000316 µM): 23%
viability, T/C (second compound 3.16 µM, first compound 0.001 µM): 24.3%
viability, T/C [25]: 21.1%
viability, T/C [26]: 19.9%
viability, T/C [27]: 20.8%
viability, T/C [28]: 16.4%
viability, T/C (second compound 10 µM, first compound 0.000316 µM): 14.8%
viability, T/C (second compound 10 µM, first compound 0.001 µM): 17.9%
viability, T/C [31]: 26.6%
viability, T/C [32]: 15.5%
viability, T/C [33]: 15%
viability, T/C [34]: 11%

IC50 (second compound 0.0316 µM): > 10 µM
IC50 (second compound 0.1 µM): > 10 µM
IC50 (second compound 0.316 µM): 0.786 µM
IC50 (second compound 1 µM): < 0.0316 µM
IC50 (second compound 3.16 µM): < 0.0316 µM
IC50 (second compound 10 µM): < 0.0316 µM
Structure (SMILES): O=C(c1cc(Cc2n[nH]c(=O)c3ccccc23)ccc1F)N1CCN(C(=O)C2CC2)CC1 + Cc1c(S(C)(=O)=O)c(-c2cc(F)cc(N3CCN(c4ccc(NS(=O)(=O)c5ccc(NC(CCN6CCC(C(=O)OCCCP(=O)(O)O)CC6)CSc6ccccc6)c(S(=O)(=O)C(F)(F)F)c5)cc4)CC3)c2)c(-c2ccc(Cl)cc2)n1C(C)C
viability, T/C [3]: 77.8%
viability, T/C [4]: 86.6%
viability, T/C [5]: 87.5%
viability, T/C [6]: 83.3%
viability, T/C (second compound 0.0316 µM, first compound 3.16 µM): 75.6%
viability, T/C (second compound 0.0316 µM, first compound 10 µM): 76.8%
viability, T/C [9]: 88.4%
viability, T/C [10]: 71.9%
viability, T/C [11]: 64%
viability, T/C [12]: 62.6%
viability, T/C (second compound 0.1 µM, first compound 3.16 µM): 60.7%
viability, T/C (second compound 0.1 µM, first compound 10 µM): 54%
viability, T/C [15]: 56.4%
viability, T/C [16]: 61.7%
viability, T/C [17]: 52.6%
viability, T/C [18]: 48.6%
viability, T/C (second compound 0.316 µM, first compound 3.16 µM): 41.7%
viability, T/C (second compound 0.316 µM, first compound 10 µM): 35%
viability, T/C [21]: 41%
viability, T/C [22]: 34.6%
viability, T/C [23]: 31.1%
viability, T/C [24]: 30.1%
viability, T/C (second compound 1 µM, first compound 3.16 µM): 32.4%
viability, T/C (second compound 1 µM, first compound 10 µM): 27.2%
viability, T/C [27]: 23.3%
viability, T/C [28]: 19.1%
viability, T/C [29]: 17.1%
viability, T/C [30]: 19.3%
viability, T/C (second compound 3.16 µM, first compound 3.16 µM): 16%
viability, T/C (second compound 3.16 µM, first compound 10 µM): 13.4%
viability, T/C [33]: 14.4%
viability, T/C [34]: 15.4%
viability, T/C [35]: 11.7%
viability, T/C [36]: 13%
viability, T/C (second compound 10 µM, first compound 3.16 µM): 10%
viability, T/C (second compound 10 µM, first compound 10 µM): 9.06%

IC50 (second compound 0.0316 µM): 0.257 µM
IC50 (second compound 0.1 µM): 0.166 µM
IC50 (second compound 0.316 µM): < 0.00316 µM
IC50 (second compound 1 µM): < 0.00316 µM
IC50 (second compound 3.16 µM): < 0.00316 µM
IC50 (second compound 10 µM): < 0.00316 µM
Structure (SMILES): O=C(c1ccc(F)c(F)c1Nc1ccc(I)cc1F)N1CC(O)([C@@H]2CCCCN2)C1 + Cc1c(S(C)(=O)=O)c(-c2cc(F)cc(N3CCN(c4ccc(NS(=O)(=O)c5ccc(NC(CCN6CCC(C(=O)OCCCP(=O)(O)O)CC6)CSc6ccccc6)c(S(=O)(=O)C(F)(F)F)c5)cc4)CC3)c2)c(-c2ccc(Cl)cc2)n1C(C)C
viability, T/C [1]: 78.6%
viability, T/C [2]: 83.5%
viability, T/C [3]: 97.3%
viability, T/C [4]: 85%
viability, T/C [5]: 42.2%
viability, T/C [6]: 26.7%
viability, T/C [7]: 79.8%
viability, T/C [8]: 69.1%
viability, T/C [9]: 84.2%
viability, T/C [10]: 59.5%
viability, T/C [11]: 35.3%
viability, T/C [12]: 17.9%
viability, T/C [13]: 47.8%
viability, T/C [14]: 46.7%
viability, T/C [15]: 43.1%
viability, T/C [16]: 36.8%
viability, T/C [17]: 20.2%
viability, T/C [18]: 5.24%
viability, T/C [19]: 35.3%
viability, T/C [20]: 39.4%
viability, T/C [21]: 29.7%
viability, T/C [22]: 20.5%
viability, T/C [23]: 6.12%
viability, T/C [24]: 1.37%
viability, T/C [25]: 19.1%
viability, T/C [26]: 25%
viability, T/C [27]: 19.6%
viability, T/C [28]: 6.55%
viability, T/C [29]: 1.36%
viability, T/C [30]: 0.4%
viability, T/C [31]: 14.6%
viability, T/C [32]: 11.5%
viability, T/C [33]: 7.74%
viability, T/C [34]: 3.48%
viability, T/C [35]: 1.23%
viability, T/C [36]: 2.45%
